Measurements as given in patent publication US20240398832A1, “CDK4 AND 6 INHIBITOR IN COMBINATION WITH FULVESTRANT FOR THE TREATMENT OF HORMONE RECEPTOR-POSITIVE, HUMAN EPIDERMAL GROWTH FACTOR RECEPTOR 2-NEGATIVE ADVANCED OR METASTATIC BREAST CANCER IN PATIENTS PREVIOUSLY TREATED WITH A CDK4 AND 6 INHIBITOR” (Eli Lilly and Company, priority 2021, published 2024).

Tests used:
[1] = tested on: abemaciclib-resistant cells; experiment: Western blot analysis after sequential treatment; format: cell-based; conditions: in combination with ET
Method: (§1) Resistant breast cancer cells are prepared by treating breast cancer cell lines with amounts of a CDK4 and 6 inhibitor (either abemaciclib or palbociclib) in combination with 4-OH-tamoxifen (tamoxifen) for 120-144 h. The cells are sorted and screened for resistant cells, defined as geminin positive (GEM+), a marker of S/G2/M cell cycle accumulation. To confirm the resistant phenotype, cell lines are treated with tamoxifen plus the CDK4 and 6 inhibitor used to drive resistance (either abemaciclib or palbociclib). Resistant cancer cells generated by the above method are treated with abemaciclib in combination with an endocrine therapy (ET) comprising either fulvestrant or tamoxifen; or with palbociclib in combination with either fulvestrant or tamoxifen. Cell proliferation and viability are evaluated by Geminin/Ki67, annexin V, and colony formation assays. Mechanisms of resistance and the effects of sequential treatment of the CDK4 and 6 inhibitor in combination with either fulvestrant or tamoxifen are characterized by western blot and RNAseq analysis.

[2] = tested on: cell lines resistant to abemaciclib and tamoxifen; experiment: Cell proliferation and viability assays (Geminin/Ki67, annexin V, colony formation), sequential treatment; format: cell-based; conditions: sequential treatment in combination with ET
Method: as §1

[3] = tested on: abemaciclib-resistant cells; experiment: Characterization of effects of sequential treatment (proliferation, pRb signaling, androgen response); format: cell-based; conditions: in combination with ET
Method: as §1

[4] = tested on: Cancer cell lines that are resistant to palbociclib and tamoxifen; experiment: Colony formation assay, sequential CDK4 and 6 inhibitor treatment; format: cell-based; conditions: sequential treatment in combination with ET (fulvestrant or tamoxifen)
Method: as §1

[5] = tested on: early breast cancer at high risk of recurrence; conditions: adjuvant setting; patients with early breast cancer at high risk of recurrence; cited from earlier work
[6] = tested on: palbociclib-resistant cells; experiment: Western blot analysis after sequential treatment; format: cell-based; conditions: in combination with ET
Method: as §1

[7] = tested on: HR+, HER2− advanced or metastatic breast cancer; conditions: abemaciclib 150 mg BID in combination with fulvestrant; patients; cited from earlier work
[8] = tested on: Cancer cell lines that are resistant to palbociclib and tamoxifen; experiment: Geminin/Ki67 cell proliferation assay, sequential CDK4 and 6 inhibitor treatment; format: cell-based; conditions: sequential treatment in combination with ET (fulvestrant or tamoxifen)
Method: as §1

[9] = tested on: HR+, HER2− advanced or metastatic breast cancer; format: in vivo, human; conditions: investigation arm: abemaciclib 150 mg PO BID and fulvestrant 500 mg IM; expected
Method: As detailed below, a clinical trial is conducted as a Phase 3, global, multicenter, randomized, double-blind, placebo-controlled study in participants with HR+, HER2− advanced or metastatic breast cancer. The study will enroll adults who experienced disease progression on a CDK4 and 6 inhibitor and an aromatase inhibitor (AI) therapy in the first-line setting (initial therapy for advanced or metastatic breast cancer), or recurrence on or after a CDK4 and 6 inhibitor with endocrine therapy (ET) in the adjuvant setting.
The trial will include approximately 350 participants that will be randomly assigned to one of two intervention arms that include an investigational arm A: abemaciclib and fulvestrant and a control arm B: placebo and fulvestrant. […]
The primary endpoint, PFS by investigator assessment, is defined as the time from randomization until the first occurrence of documented disease progression as determined by investigator assessment per RECIST 1.1, or death from any cause in the absence of documented progressive disease. […]

[10] = tested on: Cancer cell lines that are resistant to palbociclib and tamoxifen; experiment: Annexin V assay, sequential CDK4 and 6 inhibitor treatment; format: cell-based; conditions: sequential treatment in combination with ET (fulvestrant or tamoxifen)
Method: as §1

[11] = tested on: Cancer cell lines that are resistant to palbociclib and tamoxifen; experiment: Characterization of effects of sequential treatment (proliferation, pRb signaling, androgen response); format: cell-based; conditions: sequential treatment in combination with ET
Method: as §1

| Compound | effects on FOXMI and cyclin A [1] | inhibition effects (% GEM+, colony formation ability, Ki67 levels, apoptosis) [2] | effects on proliferation, pRb signaling, or androgen response [3] | colony formation ability [4] | distant relapse-free survival (DRFS) [5] | invasive disease-free survival (IDFS) [5] | FOXMI, a regulator of senescence and apoptosis [6] | cyclin A, a marker of mitosis [6] | OS benefit compared to fulvestrant/placebo [7] | PFS benefit compared to fulvestrant/placebo [7] | safety profile [7] | % GEM+ [8] | Ki67 levels [8] | disease progression [9] | apoptosis [10] | androgen response [11] | pRb signaling [11] | proliferation [11] |
| --- | --- | --- | --- | --- | --- | --- | --- | --- | --- | --- | --- | --- | --- | --- | --- | --- | --- | --- |
| CC(=O)c1c(C)c2cnc(Nc3ccc(N4CCNCC4)cn3)nc2n(C2CCCC2)c1=O [palbociclib, 6-acetyl-8-cyclopentyl-5-methyl-2-{[5-(piperazin-1-yl)pyridine-2-yl]amino}pyrido[2,3,-d]pyrimidin-7 (8H)-one] | do not exhibit similar effects | do not show similar inhibition effects | do not exhibit similar effects |  |  |  |  |  |  |  |  |  |  |  |  |  |  |  |
| CCN1CCN(Cc2ccc(Nc3ncc(F)c(-c4cc(F)c5nc(C)n(C(C)C)c5c4)n3)nc2)CC1 [abemaciclib, [5-(4-ethyl-piperazin-1-ylmethyl)-pyridin-2-yl]-[5-fluoro-4-(7-fluoro-3-isopropyl-2-methyl-3H-benzoimidazol-5-yl)-pyrimidin-2-yl]-amine] |  |  |  | decreased | significant improvement | significant improvement | decrease | decrease | clinically meaningful | clinically meaningful | manageable safety profile | decreased | decreased | delay disease progression | increased | induction | decreased | decrease |
